Species on record: Rattus norvegicus
Test: DrugMatrix - Regimen: Daily Repeat
Type: toxicity, organism-based, Sprague-Dawley
Parameters: regimen Daily Repeat, gender Male, age 6-8 weeks
Conditions: in vivo, po, route oral GAVAGE, vehicle .5 % CMC; for ALBUMIN / ALKALINE PHOSPHATASE / ASPARTATE AMINOTRANSFERASE / BLOOD UREA NITROGEN / CARBON DIOXIDE / CHLORIDE / CHOLESTEROL / CREATINE PHOSPHOKINASE / CREATININE / GLUCOSE / LACTATE DEHYDROGENASE / PHOSPHORUS / POTASSIUM / SODIUM / TOTAL BILIRUBIN / TOTAL PROTEIN / URIC ACID / ALANINE AMINOTRANSFERASE: tissue Plasma; for ABSOLUTE BASOPHIL / ABSOLUTE EOSINOPHIL / ABSOLUTE LYMPHOCYTE / ABSOLUTE SEGMENTED NEUTROPHIL / BASOPHIL / EOSINOPHIL / ERYTHROCYTE COUNT / HEMATOCRIT / LEUKOCYTE COUNT / LYMPHOCYTE / MEAN CORPUSCULAR HEMOGLOBIN / MEAN CORPUSCULAR HEMOGLOBIN CONCENTRATION / MEAN CORPUSCULAR VOLUME / MONOCYTE / NEUTROPHIL / NUCLEATED RED BLOOD CELLS / PLATELET COUNT: tissue Blood
[1] = 3 mg/kg, 120 h, dose level Low, time 5 day
[2] = 250 mg/kg, 72 h, dose level M1, time 3 day
[3] = 250 mg/kg, 120 h, dose level M1, time 5 day
[4] = 500 mg/kg, 72 h, dose level High, time 3 day

Compound: CCN(CC)CCOc1ccc(/C(=C(/Cl)c2ccccc2)c2ccccc2)cc1 [ENCLOMIPHENE]
- ALBUMIN [1]: 4.23 G/DL
- ALKALINE PHOSPHATASE [1]: 396 u/L
- ASPARTATE AMINOTRANSFERASE [1]: 74.33 u/L
- BLOOD UREA NITROGEN [1]: 15 mg/dL
- CARBON DIOXIDE [1]: 26 mmol/L
- CHLORIDE [1]: 102.33 MEQ/L
- CHOLESTEROL [1]: 19 mg/dL
- CREATINE PHOSPHOKINASE [1]: 301 u/L
- CREATININE [1]: 0.17 mg/dL
- GLUCOSE [1]: 167.33 mg/dL
- LACTATE DEHYDROGENASE [1]: 159.33 u/L
- PHOSPHORUS [1]: 11.77 mg/dL
- POTASSIUM [1]: 6.49 MEQ/L
- SODIUM [1]: 144.63 MEQ/L
- TOTAL BILIRUBIN [1]: 0.13 mg/dL
- TOTAL PROTEIN [1]: 6.17 G/DL
- URIC ACID [1]: 1.3 mg/dL
- ABSOLUTE BASOPHIL [2]: 0 CELLS/uL
- ABSOLUTE EOSINOPHIL [2]: 257 CELLS/uL
- ABSOLUTE LYMPHOCYTE [2]: 8100 CELLS/uL
- ABSOLUTE SEGMENTED NEUTROPHIL [2]: 6509.67 CELLS/uL
- BASOPHIL [2]: 0%
- EOSINOPHIL [2]: 1.67%
- ERYTHROCYTE COUNT [2]: 6.81 x10E6/uL
- HEMATOCRIT [2]: 42.67%
- LEUKOCYTE COUNT [2]: 14.87 x10E3/uL
- LYMPHOCYTE [2]: 63%
- MEAN CORPUSCULAR HEMOGLOBIN [2]: 22.93 pg
- MEAN CORPUSCULAR HEMOGLOBIN CONCENTRATION [2]: 36.33 G/DL
- MEAN CORPUSCULAR VOLUME [2]: 63.07 fL
- MONOCYTE [2]: 0%
- NEUTROPHIL [2]: 35.33%
- NUCLEATED RED BLOOD CELLS [2]: 0 /100WBC
- PLATELET COUNT [2]: 1358.67 x10E3/uL
- ALANINE AMINOTRANSFERASE [2]: 103.33 u/L
- ALBUMIN [2]: 3.87 G/DL
- ALKALINE PHOSPHATASE [2]: 393.33 u/L
- ASPARTATE AMINOTRANSFERASE [2]: 112.33 u/L
- BLOOD UREA NITROGEN [2]: 17 mg/dL
- CARBON DIOXIDE [2]: 21.67 mmol/L
- CHLORIDE [2]: 104.67 MEQ/L
- CHOLESTEROL [2]: 20.67 mg/dL
- CREATINE PHOSPHOKINASE [2]: 596.67 u/L
- CREATININE [2]: 0.17 mg/dL
- GLUCOSE [2]: 156.67 mg/dL
- LACTATE DEHYDROGENASE [2]: 305 u/L
- PHOSPHORUS [2]: 12.63 mg/dL
- POTASSIUM [2]: 6.02 MEQ/L
- SODIUM [2]: 145 MEQ/L
- TOTAL BILIRUBIN [2]: 0.0667 mg/dL
- TOTAL PROTEIN [2]: 5.43 G/DL
- URIC ACID [2]: 2.13 mg/dL
- ABSOLUTE BASOPHIL [3]: 0 CELLS/uL
- ABSOLUTE EOSINOPHIL [3]: 97.33 CELLS/uL
- ABSOLUTE LYMPHOCYTE [3]: 15789.33 CELLS/uL
- ABSOLUTE SEGMENTED NEUTROPHIL [3]: 1980 CELLS/uL
- BASOPHIL [3]: 0%
- EOSINOPHIL [3]: 0.67%
- ERYTHROCYTE COUNT [3]: 7.29 x10E6/uL
- HEMATOCRIT [3]: 44.07%
- LEUKOCYTE COUNT [3]: 17.87 x10E3/uL
- LYMPHOCYTE [3]: 88.33%
- MEAN CORPUSCULAR HEMOGLOBIN [3]: 22.33 pg
- MEAN CORPUSCULAR HEMOGLOBIN CONCENTRATION [3]: 36.8 G/DL
- MEAN CORPUSCULAR VOLUME [3]: 60.6 fL
- MONOCYTE [3]: 0%
- NEUTROPHIL [3]: 11%
- NUCLEATED RED BLOOD CELLS [3]: 0 /100WBC
- PLATELET COUNT [3]: 1119 x10E3/uL
- ALANINE AMINOTRANSFERASE [3]: 135 u/L
- ALBUMIN [3]: 3.8 G/DL
- ALKALINE PHOSPHATASE [3]: 350 u/L
- ASPARTATE AMINOTRANSFERASE [3]: 128 u/L
- BLOOD UREA NITROGEN [3]: 17.67 mg/dL
- CARBON DIOXIDE [3]: 25.33 mmol/L
- CHLORIDE [3]: 104.33 MEQ/L
- CHOLESTEROL [3]: 27.67 mg/dL
- CREATINE PHOSPHOKINASE [3]: 820.67 u/L
- CREATININE [3]: 0.15 mg/dL
- GLUCOSE [3]: 142.67 mg/dL
- LACTATE DEHYDROGENASE [3]: 135 u/L
- PHOSPHORUS [3]: 11.73 mg/dL
- POTASSIUM [3]: 6.75 MEQ/L
- SODIUM [3]: 147.17 MEQ/L
- TOTAL BILIRUBIN [3]: 0.1 mg/dL
- TOTAL PROTEIN [3]: 5.37 G/DL
- URIC ACID [3]: 1.8 mg/dL
- ABSOLUTE BASOPHIL [4]: 0 CELLS/uL
- ABSOLUTE EOSINOPHIL [4]: 68.67 CELLS/uL
- ABSOLUTE LYMPHOCYTE [4]: 11139 CELLS/uL
- ABSOLUTE SEGMENTED NEUTROPHIL [4]: 1343.67 CELLS/uL
- BASOPHIL [4]: 0%
- EOSINOPHIL [4]: 0.67%
- ERYTHROCYTE COUNT [4]: 6.43 x10E6/uL
- HEMATOCRIT [4]: 40.43%
- LEUKOCYTE COUNT [4]: 12.83 x10E3/uL
- LYMPHOCYTE [4]: 86.67%
- MEAN CORPUSCULAR HEMOGLOBIN [4]: 24.7 pg
- MEAN CORPUSCULAR HEMOGLOBIN CONCENTRATION [4]: 39.23 G/DL
- MEAN CORPUSCULAR VOLUME [4]: 62.87 fL
- MONOCYTE [4]: 2%
- NEUTROPHIL [4]: 10.67%
- NUCLEATED RED BLOOD CELLS [4]: 0 /100WBC
- PLATELET COUNT [4]: 1271 x10E3/uL
- ALANINE AMINOTRANSFERASE [4]: 113.33 u/L
- ALBUMIN [4]: 3.63 G/DL
- ALKALINE PHOSPHATASE [4]: 288.33 u/L
- ASPARTATE AMINOTRANSFERASE [4]: 124 u/L
- BLOOD UREA NITROGEN [4]: 11 mg/dL
- CARBON DIOXIDE [4]: 32 mmol/L
- CHLORIDE [4]: 105.33 MEQ/L
- CHOLESTEROL [4]: 25.33 mg/dL
- CREATINE PHOSPHOKINASE [4]: 861 u/L
- CREATININE [4]: 0.1 mg/dL
- GLUCOSE [4]: 141 mg/dL
- LACTATE DEHYDROGENASE [4]: 193.67 u/L
- PHOSPHORUS [4]: 12.93 mg/dL
- POTASSIUM [4]: 5.84 MEQ/L
- SODIUM [4]: 146.17 MEQ/L
- TOTAL BILIRUBIN [4]: 0.1 mg/dL
- TOTAL PROTEIN [4]: 5.03 G/DL
- URIC ACID [4]: 1.43 mg/dL

Source: ChEMBL document CHEMBL3885881, “DrugMatrix”
